Test results reported in patent publication US7846936B2, “Combinations for the treatment of diseases involving cell proliferation, migration or apoptosis of myeloma cells or angiogenesis” (Boehringer Ingelheim International GmbH, priority 2003, dated 2010).

Tests used:
[1] = system: SKOV-3 cells (human ovarian carcinoma); assay: SKOV-3 xenograft combination experiment; type: in vivo, nude mice (NMRI nu/nu); conditions: SKOV-3 tumours in nude mice, 15 mg/kg daily per os, day 31
Method: The following experiment was performed in order to investigate the effect of a combination therapy with suboptimal doses of an antagonist of at least one receptor selected from VEGFR 1 to 3, PDGFRα and β, FGFR1, 2 and 3, EGFR, HER2, IGF1R, HGFR or c-Kit, which is further an antagonist of a src tyrosine kinase family member, namely the di-chloride salt of (Z)-3-(1-(4-(N-((4-methyl-piperazin-1-yl)-methylcarbonyl)-N-methyl-amino)-phenylamino)-1-phenyl-methylene]-6-methoxycarbonyl-2-indolinone (compound referred to as C12(T)), which is the di-chloride salt of above exemplified compound (T), and a dual antagonist of the epidermal growth factor (EGF) receptor and of the human epidermal growth factor of type 2 (HE type 2) receptor, namely the compound 4-[(3-chloro-4-fluorophenyl)amino]-6-{[4-(N,N-dimethylamino)-1-oxo-2-buten-1-yl]amino}-7-((S)-tetrahydrofuran-3-yloxy)-quinazoline, (compound referred to as EGFR/HER2 inh., and described in WO 02/50043 as exemplified compound of Example 1(10)), on the reduction of tumour growth, in comparison to the mono-therapies at the same doses. […]
Daily per os treatment was initially performed for 31 days. […] The calculated treated tumour to control tumour (T/C) ratio at this time point was 35% for the group treated with 15 mg/kg EGFR/HER2 inh., 32% for the group treated with 50 mg/kg C12(T), and 13% for the group treated with the combination. […]

[2] = system: FaDu tumours (human squamous carcinoma cells); assay: in vivo xenograft experiment, subcutaneous FaDu tumours; conditions: nude mice, 100 mg/kg orally twice weekly
Method: By increasing the dose to 200 mg/kg orally twice weekly an even better anti-tumour effect is expected.

[3] = system: IL-6 secretion in U-266 + BMSC co-cultures; assay: IL-6 secretion in transwell and contact co-cultures of U-266 myeloma cells and BMSC cells (Table III); type: cell-based
Source text: (§1) For comparison, the inhibition effect on BMSC mono-cultures (native) and, as control, the level of secretion of U266 mono-cultures, were also investigated.

oral bioavailability = type: in vivo; conditions: mice
Lyn = Lyn (Homo sapiens, UniProt P07948); assay: kinase inhibition panel (Table I); type: biochemical
[4] = system: IL-6 secretion by BMSC mono-cultures; assay: IL-6 secretion of BMSC mono-cultures (Table III); type: cell-based
Source text: as §1

cell lines with t(4;14) = assay: apoptosis on cell lines with t(4;14); type: cell-based; conditions: in vitro
[5] = system: IL-6 secretion by BMSC cells; assay: IL-6 secretion by bone marrow stromal cells (Table II); type: cell-based
[6] = system: IL-6 secretion by BMSC cells; assay: as above; type: cell-based; remark: listed apart in the source
Source text: For comparison, the inhibition effect with inhibition of anti-bFGF (+anti-bFGF), anti-VEGF (+anti-VEGF) and a combination of anti-bFGF and anti-VEGF (+anti-VEGF+anti-bFGF) were also investigated.

[7] = system: t(14;16) MM1.s myeloma cells; assay: apoptosis of myeloma cells; type: cell-based
CDK2 = CDK2 (Homo sapiens, UniProt P24941); assay: kinase inhibition panel (Table I); type: biochemical
[8] = clinically tested, also in conjunction with chemotherapy; cited from earlier work

Sequence of Lyn (P07948 whole entry, species assumed): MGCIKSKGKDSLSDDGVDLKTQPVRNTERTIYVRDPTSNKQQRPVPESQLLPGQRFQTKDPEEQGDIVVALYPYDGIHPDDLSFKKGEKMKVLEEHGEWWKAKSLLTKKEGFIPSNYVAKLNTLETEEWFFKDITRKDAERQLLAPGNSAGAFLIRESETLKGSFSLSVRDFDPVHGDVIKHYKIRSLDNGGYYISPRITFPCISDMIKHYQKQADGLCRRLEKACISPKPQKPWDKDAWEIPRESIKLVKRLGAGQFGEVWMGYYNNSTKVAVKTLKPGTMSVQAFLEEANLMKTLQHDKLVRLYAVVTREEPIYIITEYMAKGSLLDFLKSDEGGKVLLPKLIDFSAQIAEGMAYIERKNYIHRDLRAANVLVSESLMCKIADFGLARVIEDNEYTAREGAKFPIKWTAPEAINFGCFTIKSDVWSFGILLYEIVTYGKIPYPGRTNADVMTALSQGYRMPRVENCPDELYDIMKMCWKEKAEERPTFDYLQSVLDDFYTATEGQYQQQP

In the case of `CN(C)CC=CC(=O)Nc1cc2c(Nc3ccc(F)c(Cl)c3)ncnc2cc1O[C@H]1CCOC1` [EGFR/HER2 inh., 4-[(3-chloro-4-fluorophenyl)amino]-6-{[4-(N,N-dimethylamino)-1-oxo-2-buten-1-yl]amino}-7-((S)-tetrahydrofuran-3-yloxy)-quinazoline], the “treated tumour to control tumour (T/C) ratio” value [1] is reported as 35%.
In the case of `CCS(=O)(=O)O.COC(=O)c1ccc2c(c1)NC(=O)/C2=C(\Nc1ccc(N(C)C(=O)CN2CCN(C)CC2)cc1)c1ccccc1` [MES(T), monoethanesulfonate salt of 3-Z-[1-(4-(N-((4-methyl-piperazin-1-yl)-methylcarbonyl)-N-methyl-amino)-anilino)-1-phenyl-methylene]-6-methoxycarbonyl-2-indolinone], the “T/C (Tumour/Control) value” [2] is reported as 31%, the “IL-6 secretion, Contact U-266 + BMSC co-cultures” value ([3]; MES(T) 125 nM) is reported as 259.6 and the “IL-6 secretion, Contact U-266 + BMSC co-cultures” value ([3]; MES(T) 250 nM) is reported as 199.4. The “IL-6 secretion, Contact U-266 + BMSC co-cultures” value ([3]; MES(T) 500 nM) was 114.7, the “effect on IL-6 secretion of BMSC cultures stimulated by myeloma cells” value ([3]; transwell and contact co-cultures) was “decrease to its basal (native) value the level of IL-6 secretion” and the “IL-6 secretion, Transwell U-266 + BMSC co-cultures” value ([3]; MES(T) 50 nM) was 354.5. For the same compound, the “IL-6 secretion, Transwell U-266 + BMSC co-cultures” value ([3]; MES(T) 125 nM) was 297.6, the “IL-6 secretion, Transwell U-266 + BMSC co-cultures” value ([3]; MES(T) 250 nM) was 231.1 and the “IL-6 secretion, Transwell U-266 + BMSC co-cultures” value ([3]; MES(T) 500 nM) was 123.9. The oral bioavailability (oral bioavailability) was “orally bioavailable”, the IC50 (Lyn) was 195 nM and the “IL-6 secretion, BMSC mono-cultures” value ([4]; MES(T) 50 nM) was 213.4. For the same compound, the “IL-6 secretion, BMSC mono-cultures” value ([4]; MES(T) 125 nM) was 192.1, the “IL-6 secretion, BMSC mono-cultures” value ([4]; MES(T) 250 nM) was 69.9 and the “IL-6 secretion, BMSC mono-cultures” value ([4]; MES(T) 500 nM) was 38.6. The “apoptosis on cell lines with t(4;14)” value (cell lines with t(4;14)) was “Direct induction of apoptosis”, the “IL-6 secretion by BMSC cells” value ([5]; +VEGF, MES(T) 10 nM) was 122.3 and the “IL-6 secretion by BMSC cells” value ([5]; +VEGF, MES(T) 50 nM) was 130.7. For the same compound, the “IL-6 secretion by BMSC cells” value ([5]; +VEGF, MES(T) 125 nM) was 141.0, the “IL-6 secretion by BMSC cells” value ([5]; +VEGF, MES(T) 250 nM) was 65.5 and the “IL-6 secretion by BMSC cells” value ([5]; +VEGF, MES(T) 500 nM) was 14.8. The “IL-6 secretion by BMSC cells” value ([5]; +anti-VEGF + anti-bFGF, MES(T) 10 nM) was 68.1, the “IL-6 secretion by BMSC cells” value ([5]; +anti-VEGF + anti-bFGF, MES(T) 50 nM) was 63.4 and the “IL-6 secretion by BMSC cells” value ([5]; +anti-VEGF + anti-bFGF, MES(T) 125 nM) was 86.1. The “IL-6 secretion by BMSC cells” value ([5]; +anti-VEGF, MES(T) 10 nM) was 148.6, the “IL-6 secretion by BMSC cells” value ([5]; +anti-VEGF, MES(T) 50 nM) was 155.2 and the “IL-6 secretion by BMSC cells” value ([5]; +anti-VEGF, MES(T) 125 nM) was 166.7. The “IL-6 secretion by BMSC cells” value ([5]; +anti-VEGF, MES(T) 250 nM) was 89.4, the “IL-6 secretion by BMSC cells” value ([5]; +anti-VEGF, MES(T) 500 nM) was 16.2 and the “IL-6 secretion by BMSC cells” value ([5]; +anti-bFGF, MES(T) 10 nM) was 68.9. For the same compound, the “IL-6 secretion by BMSC cells” value ([5]; +anti-bFGF, MES(T) 500 nM) was 20.2, the “IL-6 secretion by BMSC cells” value ([5]; +bFGF, MES(T) 10 nM) was 150.5 and the “IL-6 secretion by BMSC cells” value ([5]; +bFGF, MES(T) 50 nM) was 179.7. For the same compound, the “IL-6 secretion by BMSC cells” value ([5]; +bFGF, MES(T) 125 nM) was 91.2, the “IL-6 secretion by BMSC cells” value ([5]; +bFGF, MES(T) 250 nM) was 76.9 and the “IL-6 secretion by BMSC cells” value ([5]; +bFGF, MES(T) 500 nM) was 43.4. The “IL-6 secretion by BMSC cells” value ([5]; native, MES(T) 10 nM) was 130.2, the “IL-6 secretion by BMSC cells” value ([5]; native, MES(T) 50 nM) was 170.4 and the “IL-6 secretion by BMSC cells” value ([5]; native, MES(T) 125 nM) was 97.5. The “IL-6 secretion by BMSC cells” value ([5]; native, MES(T) 250 nM) was 76.5, the “IL-6 secretion by BMSC cells” value ([5]; native, MES(T) 500 nM) was 39.6 and the “IL-6 secretion by BMSC cells” value ([6]; +anti-VEGF + anti-bFGF, MES(T) 250 nM) was 45.0. For the same compound, the “IL-6 secretion by BMSC cells” value ([6]; +anti-VEGF + anti-bFGF, MES(T) 500 nM) was 13.5, the “IL-6 secretion by BMSC cells” value ([6]; +anti-bFGF, MES(T) 50 nM) was 81.3 and the “IL-6 secretion by BMSC cells” value ([6]; +anti-bFGF, MES(T) 125 nM) was 42.4. The “IL-6 secretion by BMSC cells” value ([6]; +anti-bFGF, MES(T) 250 nM) was 33.0, the “effect on dexamethasone-induced apoptosis” value ([7]; combined with dexamethasone) was “enhances the apoptosis induced by dexamethasone” and the “apoptosis of myeloma cells” value ([7]; t(14;16) MM1.s myeloma cells, MES(T) alone) was “pro-apoptotic effects”. It also gave an IC50 (CDK2) greater than 10 µM.
For `Cc1cc(C)c(/C=C2\C(=O)Nc3ccccc32)[nH]1` [SU5416], the “side effect in clinical testing” value [8] is listed as “thromboembolic events”.
